Common to all, as to experiment: relative viability (nuclei count vs DMSO), 5 days (fraction); higher = more cells survive
Compound in the assay “AZD5582 + Olaparib”: C[C@@H](C(=O)N[C@@H](C1CCCCC1)C(=O)N2CCC[C@H]2C(=O)N[C@@H]3[C@@H](CC4=CC=CC=C34)OCC#CC#CCO[C@@H]5CC6=CC=CC=C6[C@@H]5NC(=O)[C@@H]7CCCN7C(=O)[C@H](C8CCCCC8)NC(=O)[C@H](C)NC)NC [AZD5582] + O=C(c1cc(Cc2n[nH]c(=O)c3ccccc23)ccc1F)N1CCN(C(=O)C2CC2)CC1 [Olaparib] (partner 8 µM)
In short, it runs like this: (§1)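 Relative viability equals treated-well nuclei counts divided by vehicle-well nuclei counts. Counts came from 4× images of lung cancer cell lines grown in 1536-well plates for 5 days after pin-tool dosing on the day after seeding. Dosing used one drug alone or a fixed anchor-drug dose plus five library-drug doses (not always all listed) in √10 steps, and values are medians of duplicate plates.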

Compound in assay [1]: Cn1nnc2c(C(N)=O)ncn2c1=O [Temozolomide] + C[C@]1(O)C[C@@H](c2nc(-c3ccc4ccc(-c5ccccc5)nc4c3)c3c(N)nccn32)C1 [Linsitinib] (partner 1 µM)
Summed up: as §1

Compound in assay [2]: Cn1nnc2c(C(N)=O)ncn2c1=O [Temozolomide] + Nc1ncn([C@H]2C[C@H](O)[C@@H](CO)O2)c(=O)n1 [Decitabine] (partner 2 µM)
Summed up:
as §1

Compound in the assay “AZD5582 + Luminespib”: C[C@@H](C(=O)N[C@@H](C1CCCCC1)C(=O)N2CCC[C@H]2C(=O)N[C@@H]3[C@@H](CC4=CC=CC=C34)OCC#CC#CCO[C@@H]5CC6=CC=CC=C6[C@@H]5NC(=O)[C@@H]7CCCN7C(=O)[C@H](C8CCCCC8)NC(=O)[C@H](C)NC)NC [AZD5582] + CCNC(=O)c1noc(-c2cc(C(C)C)c(O)cc2O)c1-c1ccc(CN2CCOCC2)cc1 [Luminespib] (partner 0.01 µM)
In short, it runs like this:
as §1

On to Calu-6, for which the relative viability with AZD5582 + Olaparib (first compound 0.001581 µM) was found to be 0.489; with AZD5582 + Olaparib (first compound 0.01581 µM) it was 0.629; with AZD5582 + Olaparib (first compound 0.05 µM) it was 0.258; in assay [1] (first compound 0.2 µM) it was 0.929; in assay [1] (first compound 0.6325 µM) it was 0.941; in assay [1] (first compound 2 µM), 1.17. Moreover, the values for the relative viability in assay [1] (first compound 6.325 µM) and in assay [1] (first compound 20 µM) were 0.971 and 1.02, respectively.
Turning to ChaGo-K-1, the relative viability with AZD5582 + Olaparib (first compound 0.001581 µM) amounted to 0.435; with AZD5582 + Olaparib (first compound 0.005 µM), 0.41; with AZD5582 + Olaparib (first compound 0.01581 µM) it was 0.421; with AZD5582 + Olaparib (first compound 0.05 µM) it was 0.442; in assay [2] (first compound 0.2 µM), 0.521; in assay [2] (first compound 0.6325 µM) it was 0.524. The relative viability in assay [2] (first compound 2 µM) is 0.529; in assay [2] (first compound 6.325 µM), 0.54; in assay [2] (first compound 20 µM) it was 0.507; with AZD5582 + Luminespib (first compound 0.001581 µM), 0.518; with AZD5582 + Luminespib (first compound 0.005 µM), 0.691; in the assay with AZD5582 + Luminespib (first compound 0.01581 µM), 0.518. For the same cell line, the relative viability in the assay with AZD5582 + Luminespib (first compound 0.05 µM) was found to be 0.633.
Regarding EBC-1, the relative viability was determined as 0.646 with AZD5582 + Olaparib (first compound 0.001581 µM); 0.707 with AZD5582 + Olaparib (first compound 0.005 µM); 0.639 in the assay with AZD5582 + Olaparib (first compound 0.01581 µM); 0.571 with AZD5582 + Olaparib (first compound 0.05 µM); 1.03 in assay [1] (first compound 0.2 µM); 0.885 in assay [1] (first compound 0.6325 µM). Besides, the relative viability in assay [1] (first compound 2 µM) came to 1.13; in assay [1] (first compound 6.325 µM), 0.912; in assay [1] (first compound 20 µM) it was 0.947.
Consider EKVX, for which the relative viability in the assay with AZD5582 + Olaparib (first compound 0.001581 µM) came out at 0.777; with AZD5582 + Olaparib (first compound 0.005 µM) it was 0.894; with AZD5582 + Olaparib (first compound 0.01581 µM), 0.725; with AZD5582 + Olaparib (first compound 0.05 µM), 0.854; in assay [1] (first compound 0.2 µM) it was 0.442; in assay [1] (first compound 0.6325 µM) it was 1.05. Also, the relative viability in assay [1] (first compound 2 µM) came out at 1.04; in assay [1] (first compound 6.325 µM), 1.06; in assay [1] (first compound 20 µM), 0.707; in assay [2] (first compound 0.6325 µM) it was 0.295; in assay [2] (first compound 2 µM) it was 0.236; in assay [2] (first compound 6.325 µM) it was 0.34. Also, the relative viability in assay [2] (first compound 20 µM) is 0.221; in the assay with AZD5582 + Luminespib (first compound 0.001581 µM) it was 0.859; with AZD5582 + Luminespib (first compound 0.005 µM), 0.972; in the assay with AZD5582 + Luminespib (first compound 0.01581 µM) it was 0.787; with AZD5582 + Luminespib (first compound 0.05 µM), 0.803.
On to EMC-BAC-2, for which the relative viability with AZD5582 + Olaparib (first compound 0.001581 µM) turned out to be 0.43; in the assay with AZD5582 + Olaparib (first compound 0.005 µM), 0.446; with AZD5582 + Olaparib (first compound 0.01581 µM), 0.437; with AZD5582 + Olaparib (first compound 0.05 µM), 0.446; in assay [1] (first compound 0.2 µM), 0.719; in assay [1] (first compound 0.6325 µM) it was 0.85. In addition, the relative viability in assay [1] (first compound 2 µM) is 0.766; in assay [1] (first compound 6.325 µM), 0.799; in assay [1] (first compound 20 µM), 0.749; in assay [2] (first compound 0.2 µM), 1.01; in assay [2] (first compound 0.6325 µM) it was 1.05; in assay [2] (first compound 2 µM) it was 1.01. The relative viability in assay [2] (first compound 6.325 µM) is 0.993; in assay [2] (first compound 20 µM) it was 0.927; in the assay with AZD5582 + Luminespib (first compound 0.001581 µM), 1.06; with AZD5582 + Luminespib (first compound 0.005 µM) it was 0.922; with AZD5582 + Luminespib (first compound 0.01581 µM), 1.19; with AZD5582 + Luminespib (first compound 0.05 µM) it was 0.721.
On to EPLC-272H, for which the relative viability turned out to be 0.955 with AZD5582 + Olaparib (first compound 0.01581 µM); 0.0712 in the assay with AZD5582 + Olaparib (first compound 0.05 µM); 1.13 in assay [1] (first compound 0.2 µM); 1.13 in assay [1] (first compound 0.6325 µM); 1.38 in assay [1] (first compound 2 µM); 1.11 in assay [1] (first compound 6.325 µM). The relative viability in assay [1] (first compound 20 µM) was 0.812; in assay [2] (first compound 0.2 µM), 0.357; in assay [2] (first compound 0.6325 µM) it was 0.395; in assay [2] (first compound 2 µM), 0.385; in assay [2] (first compound 6.325 µM), 0.401; in assay [2] (first compound 20 µM), 0.312. Further, the relative viability with AZD5582 + Luminespib (first compound 0.001581 µM) worked out at 0.24; in the assay with AZD5582 + Luminespib (first compound 0.01581 µM), 0.205; with AZD5582 + Luminespib (first compound 0.05 µM), 0.381.
For H3255, the relative viability in the assay with AZD5582 + Olaparib (first compound 0.001581 µM) was 0.489; in the assay with AZD5582 + Olaparib (first compound 0.005 µM), 0.598; in the assay with AZD5582 + Olaparib (first compound 0.01581 µM), 0.553; with AZD5582 + Olaparib (first compound 0.05 µM) it was 0.481; in assay [1] (first compound 0.6325 µM) it was 0.963; in assay [1] (first compound 2 µM), 0.927. Besides, the relative viability is 0.959 in assay [1] (first compound 6.325 µM); 0.145 in assay [1] (first compound 20 µM); 0.652 in assay [2] (first compound 0.6325 µM); 0.812 in assay [2] (first compound 2 µM); 0.514 in assay [2] (first compound 6.325 µM); 0.187 in assay [2] (first compound 20 µM). Further, the relative viability was found to be 0.731 with AZD5582 + Luminespib (first compound 0.001581 µM), 0.956 with AZD5582 + Luminespib (first compound 0.005 µM), 0.653 in the assay with AZD5582 + Luminespib (first compound 0.01581 µM) and 0.824 with AZD5582 + Luminespib (first compound 0.05 µM).
Turning to HARA, the relative viability with AZD5582 + Olaparib (first compound 0.001581 µM) came out at 0.76; with AZD5582 + Olaparib (first compound 0.005 µM), 0.761; with AZD5582 + Olaparib (first compound 0.01581 µM), 0.812; with AZD5582 + Olaparib (first compound 0.05 µM), 0.841; in assay [1] (first compound 0.2 µM), 0.593; in assay [1] (first compound 0.6325 µM), 0.985. Besides, the relative viability in assay [1] (first compound 2 µM) is 1.09; in assay [1] (first compound 6.325 µM), 0.933; in assay [1] (first compound 20 µM) it was 0.863; in assay [2] (first compound 0.2 µM), 0.677; in assay [2] (first compound 0.6325 µM), 0.607; in assay [2] (first compound 2 µM) it was 0.594. For the same cell line, the relative viability in assay [2] (first compound 6.325 µM) turned out to be 0.523; in assay [2] (first compound 20 µM) it was 0.489; in the assay with AZD5582 + Luminespib (first compound 0.001581 µM), 0.39; in the assay with AZD5582 + Luminespib (first compound 0.005 µM), 0.727; with AZD5582 + Luminespib (first compound 0.01581 µM), 0.733; in the assay with AZD5582 + Luminespib (first compound 0.05 µM) it was 1.21.
Take HCC-15: the relative viability in the assay with AZD5582 + Olaparib (first compound 0.001581 µM) worked out at 0.615; with AZD5582 + Olaparib (first compound 0.005 µM), 0.624; in the assay with AZD5582 + Olaparib (first compound 0.01581 µM) it was 0.622; with AZD5582 + Olaparib (first compound 0.05 µM), 0.598; in assay [1] (first compound 0.2 µM), 0.976; in assay [1] (first compound 0.6325 µM), 0.905. For the same cell line, the relative viability in assay [1] (first compound 2 µM) amounted to 0.928; in assay [1] (first compound 6.325 µM), 0.858; in assay [1] (first compound 20 µM), 0.888; in assay [2] (first compound 0.2 µM) it was 0.738; in assay [2] (first compound 0.6325 µM), 0.633; in assay [2] (first compound 2 µM), 0.588. The relative viability in assay [2] (first compound 6.325 µM) came out at 0.617; in assay [2] (first compound 20 µM), 0.798; with AZD5582 + Luminespib (first compound 0.001581 µM) it was 0.264; in the assay with AZD5582 + Luminespib (first compound 0.005 µM), 0.323; in the assay with AZD5582 + Luminespib (first compound 0.01581 µM) it was 0.278; in the assay with AZD5582 + Luminespib (first compound 0.05 µM) it was 0.301.

Values taken from the supplement of paper PMC10307832.
